Experimental data: publication PMC11434749, “In Vitro Interaction of Binuclear Copper Complexes with Liver Drug-Metabolizing Cytochromes P450” (Pharmaceuticals, 2024)

Key:
CYP2C8 = molecular target: T1, CYP2C8 (Homo sapiens, UniProt P10632); test: Inhibition of CYP2C8 activity (paclitaxel 6α-hydroxylation) in human liver microsomes; type: in vitro ADME; conditions: HLM, paclitaxel 50 µmol·L^−1, preincubation 30 min at 37 °C, Mean ± S.D.
T1 construct: Pooled human liver microsomes were obtained from Biopredic (Rennes, France); tissue Biopredic (Rennes, France); host or cells: pooled human liver microsomes, seventeen donors
T1 sequence (P10632 1-490): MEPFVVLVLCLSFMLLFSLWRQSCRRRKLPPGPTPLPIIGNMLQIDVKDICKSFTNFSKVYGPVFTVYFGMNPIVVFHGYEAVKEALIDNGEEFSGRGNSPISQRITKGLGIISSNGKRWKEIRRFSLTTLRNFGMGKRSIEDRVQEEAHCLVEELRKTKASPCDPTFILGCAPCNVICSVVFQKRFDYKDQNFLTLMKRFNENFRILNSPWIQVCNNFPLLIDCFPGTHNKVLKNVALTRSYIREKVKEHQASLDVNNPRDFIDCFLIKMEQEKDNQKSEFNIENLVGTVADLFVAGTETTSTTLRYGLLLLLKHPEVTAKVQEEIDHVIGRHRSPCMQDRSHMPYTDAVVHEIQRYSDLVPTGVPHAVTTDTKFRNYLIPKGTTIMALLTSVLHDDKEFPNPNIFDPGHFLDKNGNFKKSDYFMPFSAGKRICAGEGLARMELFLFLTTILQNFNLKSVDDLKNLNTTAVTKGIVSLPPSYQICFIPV
Experimental: (§1) The following enzyme assays were performed to determine the activities of specific CYP enzymes: CYP1A2, 7-ethoxyresorufin O-deethylation; CYP2A6, coumarin 7-hydroxylation; CYP2B6, 7-ethoxy-4-(trifluoromethyl) coumarin (EFC) O-deethylation; CYP2C8 paclitaxel 6α-hydroxylation; CYP2C9, diclofenac 4′-hydroxylation; CYP2C19, diazepam N-desmethylation; CYP2D6, bufuralol 1′-hydroxylation; CYP2E1, chlorzoxazone 6-hydroxylation; and CYP3A4/5, testosterone 6β-hydroxylation. […]
(§2) For the determination of metabolites formed from specific substrates, a Prominence LC-20A HPLC system (Shimadzu, Kyoto, Japan) with UV detection or fluorescence detection was used (see Table 2). […]
(§3) Initially, for each enzyme assay, a preliminary experiment was carried out to determine Km and Vmax to obtain the appropriate concentration of the specific substrates for the inhibition experiments (the substrate concentration was chosen in the range corresponding to the value of the Km for each particular reaction). Data were analyzed using the Sigma plot software, as mentioned above, with spectral studies. […] In all cases, the inhibition of individual CYP activities was evaluated by plotting the respective remaining activity against the inhibitor concentration.

CYP2A6 = molecular target: T2, CYP2A6 (Homo sapiens, UniProt P11509); test: Inhibition of CYP2A6 activity (coumarin 7-hydroxylation) in human liver microsomes; type: in vitro ADME; conditions: HLM, coumarin 15 µmol·L^−1, preincubation 30 min at 37 °C, Mean ± S.D.
T2 construct: Pooled human liver microsomes were obtained from Biopredic (Rennes, France); tissue Biopredic (Rennes, France); host or cells: pooled human liver microsomes, seventeen donors
T2 sequence (P11509 1-494): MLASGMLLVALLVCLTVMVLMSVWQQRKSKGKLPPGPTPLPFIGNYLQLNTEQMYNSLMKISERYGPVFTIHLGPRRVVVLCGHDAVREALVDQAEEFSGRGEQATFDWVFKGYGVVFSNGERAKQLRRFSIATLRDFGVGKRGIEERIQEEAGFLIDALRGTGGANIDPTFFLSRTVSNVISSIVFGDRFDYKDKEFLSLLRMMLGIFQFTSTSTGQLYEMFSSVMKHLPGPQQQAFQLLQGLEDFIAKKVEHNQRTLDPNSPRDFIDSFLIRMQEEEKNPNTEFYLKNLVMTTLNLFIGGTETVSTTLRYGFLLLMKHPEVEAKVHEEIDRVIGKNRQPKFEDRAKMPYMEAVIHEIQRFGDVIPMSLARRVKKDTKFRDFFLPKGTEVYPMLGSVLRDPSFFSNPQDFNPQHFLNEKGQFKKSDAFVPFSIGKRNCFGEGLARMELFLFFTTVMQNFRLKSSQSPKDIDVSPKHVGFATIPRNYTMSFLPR
Experimental: as §1, §2, §3

CYP2D6 = molecular target: T3, CYP2D6 (Homo sapiens, UniProt P10635); test: Inhibition of CYP2D6 activity (bufuralol 1′-hydroxylation) in human liver microsomes; type: in vitro ADME; conditions: HLM, bufuralol 15 µmol·L^−1, preincubation 30 min at 37 °C, Mean ± S.D.
T3 construct: Pooled human liver microsomes were obtained from Biopredic (Rennes, France); tissue Biopredic (Rennes, France); host or cells: pooled human liver microsomes, seventeen donors
T3 sequence (P10635 whole entry): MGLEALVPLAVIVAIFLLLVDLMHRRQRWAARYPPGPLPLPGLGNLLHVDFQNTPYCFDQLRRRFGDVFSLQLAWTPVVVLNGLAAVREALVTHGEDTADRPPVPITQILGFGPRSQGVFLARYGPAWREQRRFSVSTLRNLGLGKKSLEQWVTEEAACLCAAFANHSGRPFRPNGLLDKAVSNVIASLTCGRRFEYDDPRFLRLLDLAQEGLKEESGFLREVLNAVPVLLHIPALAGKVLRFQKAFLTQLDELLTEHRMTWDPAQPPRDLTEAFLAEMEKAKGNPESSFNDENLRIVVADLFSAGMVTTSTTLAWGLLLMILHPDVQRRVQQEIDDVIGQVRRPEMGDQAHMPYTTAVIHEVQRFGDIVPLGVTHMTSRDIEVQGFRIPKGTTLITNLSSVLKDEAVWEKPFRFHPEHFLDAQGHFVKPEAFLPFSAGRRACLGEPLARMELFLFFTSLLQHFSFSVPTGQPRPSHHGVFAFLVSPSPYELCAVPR
Experimental: as §1, §2, §3

CYP2C19 = molecular target: T4, CYP2C19 (Homo sapiens, UniProt P33261); test: Inhibition of CYP2C19 activity (diazepam N-desmethylation) in human liver microsomes; type: in vitro ADME; conditions: HLM, diazepam 150 µmol·L^−1, preincubation 30 min at 37 °C, Mean ± S.D.
T4 construct: Pooled human liver microsomes were obtained from Biopredic (Rennes, France); tissue Biopredic (Rennes, France); host or cells: pooled human liver microsomes, seventeen donors
T4 sequence (P33261 whole entry): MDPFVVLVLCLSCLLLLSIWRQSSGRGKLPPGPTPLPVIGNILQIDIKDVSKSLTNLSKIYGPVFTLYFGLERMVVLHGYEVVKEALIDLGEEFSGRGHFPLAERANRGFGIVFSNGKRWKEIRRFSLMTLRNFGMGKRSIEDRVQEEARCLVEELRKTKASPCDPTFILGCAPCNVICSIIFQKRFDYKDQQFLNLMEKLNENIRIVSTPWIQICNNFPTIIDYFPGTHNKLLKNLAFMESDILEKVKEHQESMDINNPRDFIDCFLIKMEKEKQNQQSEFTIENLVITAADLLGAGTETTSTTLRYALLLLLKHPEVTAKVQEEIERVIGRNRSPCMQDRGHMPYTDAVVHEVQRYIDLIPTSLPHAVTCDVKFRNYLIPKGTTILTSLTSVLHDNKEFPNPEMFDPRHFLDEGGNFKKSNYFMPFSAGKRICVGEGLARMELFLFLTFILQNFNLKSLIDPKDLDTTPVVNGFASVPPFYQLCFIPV
Experimental: The following enzyme assays were performed to determine the activities of specific CYP enzymes: CYP1A2, 7-ethoxyresorufin O-deethylation; CYP2A6, coumarin 7-hydroxylation; CYP2B6, 7-ethoxy-4-(trifluoromethyl) coumarin (EFC) O-deethylation; CYP2C8 paclitaxel 6α-hydroxylation; CYP2C9, diclofenac 4′-hydroxylation; CYP2C19, diazepam N-desmethylation; CYP2D6, bufuralol 1′-hydroxylation; CYP2E1, chlorzoxazone 6-hydroxylation; and CYP3A4/5, testosterone 6β-hydroxylation.
The incubation mixtures contained 100 mmol·L^−1 potassium phosphate buffer (pH 7.4), an NADPH-generating system (0.8 mmol·L^−1 NADP^+, 5.8 mmol·L^−1 isocitrate, 0.3 unit/mL of isocitrate dehydrogenase, and 8 mmol·L^−1 MgCl2), HLM, and an individual probe substrate.
For the determination of metabolites formed from specific substrates, a Prominence LC-20A HPLC system (Shimadzu, Kyoto, Japan) with UV detection or fluorescence detection was used (see Table 2). As a rule, reversed-phase chromatography was applied with Merck (Darmstadt, Germany) LiChroCART 250 × 4 mm (i.d.) cartridges packed with a LiChrospher RP-18 silica gel (5 µm particle size) with C-18 reversed-phase properties; a 4 × 4 mm (i.d.) guard column was also used. For the composition of the mobile phase in the respective analyses, see the original reference.
Initially, for each enzyme assay, a preliminary experiment was carried out to determine Km and Vmax to obtain the appropriate concentration of the specific substrates for the inhibition experiments (the substrate concentration was chosen in the range corresponding to the value of the Km for each particular reaction). Data were analyzed using the Sigma plot software, as mentioned above, with spectral studies. Inhibition experiments were performed with a concentration range of the tested complexes from 0.78 to 50 µmol·L^−1. The concentration range used here is in accordance with the MIC (see above) and is adequate. The experimental conditions were the same as for the determination of individual CYP activities (Table 2); the assays were performed in duplicates, with individual values differing by less than 20%. Preincubation of the reaction mixtures with the tested complexes for 30 min at 37 °C was carried out in all assays. In all cases, the inhibition of individual CYP activities was evaluated by plotting the respective remaining activity against the inhibitor concentration.

S. aureus = system: S. aureus; parameters: method as in doi:10.1016/j.ica.2022.121273; conditions: Gram-positive; cited from earlier work
CYP2E1 = molecular target: T5, CYP2E1 (Homo sapiens, UniProt P05181); test: Inhibition of CYP2E1 activity (chlorzoxazone 6-hydroxylation) in human liver microsomes; type: in vitro ADME; conditions: HLM, chlorzoxazone 30 µmol·L^−1, preincubation 30 min at 37 °C, Mean ± S.D.
T5 construct: Pooled human liver microsomes were obtained from Biopredic (Rennes, France); tissue Biopredic (Rennes, France); host or cells: pooled human liver microsomes, seventeen donors
T5 sequence (P05181 whole entry): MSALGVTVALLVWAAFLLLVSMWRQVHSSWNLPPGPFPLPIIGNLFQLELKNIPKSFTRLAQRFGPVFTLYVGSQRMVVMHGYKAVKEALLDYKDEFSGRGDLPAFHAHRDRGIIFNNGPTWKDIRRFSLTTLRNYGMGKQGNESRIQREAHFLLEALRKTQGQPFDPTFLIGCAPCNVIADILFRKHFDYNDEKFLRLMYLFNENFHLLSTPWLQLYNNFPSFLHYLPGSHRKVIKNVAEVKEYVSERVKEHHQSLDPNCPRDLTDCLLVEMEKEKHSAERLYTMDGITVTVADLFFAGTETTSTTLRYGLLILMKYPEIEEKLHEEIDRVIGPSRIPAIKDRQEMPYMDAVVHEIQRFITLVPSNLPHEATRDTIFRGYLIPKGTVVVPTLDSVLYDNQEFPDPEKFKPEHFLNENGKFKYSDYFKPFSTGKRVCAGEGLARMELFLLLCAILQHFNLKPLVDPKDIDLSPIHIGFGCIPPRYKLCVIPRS
Experimental: as §1, §2, §3

E. faecalis = system: E. faecalis; parameters: method as in doi:10.1016/j.ica.2022.121273; conditions: Gram-positive; cited from earlier work

Structure (SMILES)	IC50 (CYP2C8) [µM]	IC50 (CYP2A6) [µM]	IC50 (CYP2D6) [µM]	IC50 (CYP2C19) [µM]	IC50 (CYP2C19; listed as complex No. 5) [µM]	MIC S. aureus (S. aureus) [µg/mL]	IC50 (CYP2E1) [µM]	MIC E. faecalis (E. faecalis) [µg/mL]	IC50 (CYP2C19; listed as complex No. 6) [µM]
CN(C)CCN(C)CCN(C)C.CN(C)CCN(C)CCN(C)C.O.O.O=C([O-])/C=C/C(=O)[O-].[Cu+2].[Cu+2].[O-][Cl+3]([O-])([O-])[O-].[O-][Cl+3]([O-])([O-])[O-] [Complex No. 5, [Cu2(μ-fu)(pmdien)2(H2O)2](ClO4)2]	3.66 ± 0.19	24.9 ± 0.25	12.4 ± 0.21	2.53 ± 0.59	~2.5	1.05	12.5 ± 0.18	4.22	–
CN(C)CCN(C)CCN(C)C.CN(C)CCN(C)CCN(C)C.O.O.O=C([O-])CCSSCCC(=O)[O-].[Cu+2].[Cu+2].[O-][Cl+3]([O-])([O-])[O-].[O-][Cl+3]([O-])([O-])[O-] [Complex No. 6, [Cu2(μ-dtdp)(pmdien)2(H2O)2](ClO4)2]	3.4 ± 0.1	25.13 ± 0.13	6.33 ± 0.22	6.43 ± 0.63	–	8.44	6.59 ± 0.18	8.44	~6.4
